# Experimental data published in PMC9515143, “Phosphorylation of Jhd2 by the Ras-cAMP-PKA(Tpk2) pathway regulates histone modifications and autophagy” (Nature Communications, 2022).
# Columns and labels:
# histone modifications = test: Effect of glucose on histone modifications in WT and ubp8∆ ubp10∆ mutant (Western blot); type: cell-based, budding yeast (Saccharomyces cerevisiae); details: for relative histone modification level (Figure S1c): 0.5 hr
# Text: To identify the signaling pathway that mediates glucose-induced H3K4me3, we first examined the effect of glucose on histone modifications that regulate Set1-catalyzed H3K4me3, including H2BK123 monoubiquitination (H2Bub) and H3R2 asymmetric dimethylation (H3R2me2a)[30]–[32]. […] We then determine whether glucose increases H3K4me3 by inducing H2Bub. As there is no H3K4me3 in the deletion mutants of RAD6 and BRE1, which catalyze H2Bub[30],[31], it is impossible to determine the effect of glucose on H3K4me3 in rad6Δ and bre1Δ mutants. We thus examined the effect of glucose on H3K4me3 in the deletion mutant of UBP8 and UBP10, which encode H2B ubiquitin proteases[33],[34]. […] We also examined the effect of glucose on the activity of Set1-containing complex (COMPASS).
# (§1) To examine the effect of glucose on histone modifications, yeast cells were grown in 2% glucose-containing YPD (Yeast Extract Peptone Dextrose) medium until OD600 of 0.7–1.0. Cells were then collected, washed and resuspended in YP medium for 3 hr followed by treatment with different concentrations of glucose for 0.5 hr. For 1NM-PP1 (MCE, HY-13804) treatment, cells were grown in 2% YPD until OD600 of 0.7–1.0. Cells were then treated with 25 μM 1NM-PP1 for 0.5 hr. For FBP and pyruvate treatment, cells were pre-treated with Zymolase (Mpbio, 08320921) to increase the permeability. In brief, cells were grown in YPD medium until OD600 of 0.7–1.0, centrifuged and resuspended in 1 ml SB buffer (100 mM Sorbitol, 20 mM Tris pH 7.4). 10 μl Zymolase was then added and incubated at 30 °C for 15 min. The spheroplasts were washed and cultured in YPD medium containing different concentrations of FBP and pyruvate for 3 hr.
# (§2) Cells were grown in 5 ml YPD or selective medium until OD600 of 0.7–1.0. Cells were harvested and lysed in alkaline lysis buffer (2 M NaOH, 8% 2-mercaptoethanol). After centrifugation, the protein pellet was resuspended in 150 μl 2×SDS-sample buffer. Protein samples were separated by 8–15% SDS-PAGE and transferred to PVDF membrane. The blots were probed with primary antibodies followed by incubation with horseradish peroxidase-labelled IgG secondary antibodies. The protein bands were visualized using the ECL Chemiluminescence Detection Kit (Bio-Rad, 170–5061) and quantified with Image J software (v.1.8.0).
# Supplementary Fi g . 1 Glu cose induces H3K4me 3 via the Ras-cAMP-PKA(T p k 2) pathway. […]
# Cells were th en tr eat ed with YP medium supplement ed with differen t concentrations of glucos e for 0.5 hr. C ells were h ar vested an d the ex tract ed histones w er e anal yz ed by Western blots with indicat ed ant ibodies. To d et ect H2B monoubiquitination, H2B-F LAG strain w as used and d et ect ed with anti -F LAG ant ibody. Th e upper bands ar e monoubiquitinat ed H2B-F LAG. c E ff e c t of gl ucose on histone modifications in WT and ubp8∆ ubp10∆ mutant. WT and ubp8∆ ubp10∆ mut ant w er e gro wn in YPD medium unti l OD600 of […]
# For Supplem ent ar y Fi g. 1b, e-g, i-k, d at a r ep res ent means ± SEM; n=3 i ndependent ex perim ents. For Supplem entar y Fi g. 1c, d ata represent means ± SEM; n=4 independent ex periments. Tw o -sided t-tests were used for statistical analysis.
# H3K4me3 = test: Western blot of H3K4 methylation in mutants; type: cell-based, budding yeast (Saccharomyces cerevisiae)
# Procedure: as §2
# H3K14ac = test: Western blot of H3K14ac (glucose, mutants); type: cell-based, budding yeast (Saccharomyces cerevisiae)
# Procedure: as §1
# as §2, with “The blots were probed with primary antibodies followed by incubation with horseradish peroxidase-labelled IgG secondary antibodies.” left out
# Jhd2 phosphorylation = Jhd2 phosphorylation in cells at different glucose concentrations; type: cell-based, budding yeast (Saccharomyces cerevisiae); details: 0.05%, 0.5%, 2% glucose, WT, Jhd2-S321A, S340A and tpk2Δ
# Procedure: as §1
# as §2, with “The blots were probed with primary antibodies followed by incubation with horseradish peroxidase-labelled IgG secondary antibodies.” left out
# H3K79me3 = test: ChIP-qPCR of H3K79me3/H3 (rebuttal); type: cell-based, budding yeast (Saccharomyces cerevisiae); details: 0.05% versus 2% glucose
# Jhd2 = test: In vitro demethylase assay, Jhd2 purified from cells grown in increasing glucose; type: biochemical, budding yeast (Saccharomyces cerevisiae); details: Jhd2 from cells grown in 0.05%, 0.5%
# Procedure: We also purified unphosphorylated Jhd2 from tpk2Δ mutant (Jhd2 tpk2Δ) and performed in vitro demethylase assay. […] We also treated WT Jhd2 with λ phosphatase to remove its phosphorylation and then used this dephosphorylated Jhd2 for in vitro demethylase assay. […] Furthermore, we purified Jhd2 from cells grown in increasing glucose concentrations (0.05%, 0.5%, 2%) and performed in vitro demethylase assay.
# The reaction was quenched by adding 2×SDS-PAGE loading buffer and incubated at 95 °C for 10 min. Samples were spotted to PVDF membrane followed by dot blots with indicated antibodies.
structure (smiles),measurement,setting,value
OC[C@H]1OC(O)[C@H](O)[C@@H](O)[C@@H]1O (stereo partly drawn) [glucose],relative histone modification level (Figure S1c),"histone modifications; WT, 0.5% glucose, relative to WT 0.05% = 1, replicate 1",1.436
same,relative histone modification level (Figure S1c),"histone modifications; WT, 0.5% glucose, relative to WT 0.05% = 1, replicate 2",1.642
same,relative histone modification level (Figure S1c),"histone modifications; WT, 0.5% glucose, relative to WT 0.05% = 1, replicate 3",1.498
same,relative histone modification level (Figure S1c),"histone modifications; WT, 0.5% glucose, relative to WT 0.05% = 1, replicate 4",1.3798
same,relative histone modification level (Figure S1c),"histone modifications; WT, 2% glucose, relative to WT 0.05% = 1, replicate 1",1.805
same,relative histone modification level (Figure S1c),"histone modifications; WT, 2% glucose, relative to WT 0.05% = 1, replicate 2",2.101
same,relative histone modification level (Figure S1c),"histone modifications; WT, 2% glucose, relative to WT 0.05% = 1, replicate 3",2.2062
same,relative histone modification level (Figure S1c),"histone modifications; WT, 2% glucose, relative to WT 0.05% = 1, replicate 4",1.619
same,relative histone modification level (Figure S1c),"histone modifications; WT, 4% glucose, relative to WT 0.05% = 1, replicate 1",1.732
same,relative histone modification level (Figure S1c),"histone modifications; WT, 4% glucose, relative to WT 0.05% = 1, replicate 2",2.2477
same,relative histone modification level (Figure S1c),"histone modifications; WT, 4% glucose, relative to WT 0.05% = 1, replicate 3",2.452
same,relative histone modification level (Figure S1c),"histone modifications; WT, 4% glucose, relative to WT 0.05% = 1, replicate 4",2.7285
same,H3K4me3 level in ubp8Δ ubp10Δ mutant,"histone modifications; ubp8Δ ubp10Δ, glucose 0.5 hr, Western blot",H3K4me3 was still increased by glucose
same,relative histone modification level (Figure S1c),"histone modifications; ubp8Δubp10Δ, 0.05% glucose, relative to WT 0.05% = 1, replicate 1",1.962
same,relative histone modification level (Figure S1c),"histone modifications; ubp8Δubp10Δ, 0.05% glucose, relative to WT 0.05% = 1, replicate 2",2.0252
same,relative histone modification level (Figure S1c),"histone modifications; ubp8Δubp10Δ, 0.05% glucose, relative to WT 0.05% = 1, replicate 3",1.753
same,relative histone modification level (Figure S1c),"histone modifications; ubp8Δubp10Δ, 0.05% glucose, relative to WT 0.05% = 1, replicate 4",1.8754
same,relative histone modification level (Figure S1c),"histone modifications; ubp8Δubp10Δ, 0.5% glucose, relative to WT 0.05% = 1, replicate 1",2.076
same,relative histone modification level (Figure S1c),"histone modifications; ubp8Δubp10Δ, 0.5% glucose, relative to WT 0.05% = 1, replicate 2",2.387
same,relative histone modification level (Figure S1c),"histone modifications; ubp8Δubp10Δ, 0.5% glucose, relative to WT 0.05% = 1, replicate 3",2.436
same,relative histone modification level (Figure S1c),"histone modifications; ubp8Δubp10Δ, 0.5% glucose, relative to WT 0.05% = 1, replicate 4",1.826
same,relative histone modification level (Figure S1c),"histone modifications; ubp8Δubp10Δ, 2% glucose, relative to WT 0.05% = 1, replicate 1",2.343
same,relative histone modification level (Figure S1c),"histone modifications; ubp8Δubp10Δ, 2% glucose, relative to WT 0.05% = 1, replicate 2",2.512
same,relative histone modification level (Figure S1c),"histone modifications; ubp8Δubp10Δ, 2% glucose, relative to WT 0.05% = 1, replicate 3",2.749
same,relative histone modification level (Figure S1c),"histone modifications; ubp8Δubp10Δ, 2% glucose, relative to WT 0.05% = 1, replicate 4",2.579
same,relative histone modification level (Figure S1c),"histone modifications; ubp8Δubp10Δ, 4% glucose, relative to WT 0.05% = 1, replicate 1",3.366
same,relative histone modification level (Figure S1c),"histone modifications; ubp8Δubp10Δ, 4% glucose, relative to WT 0.05% = 1, replicate 2",3.228
same,relative histone modification level (Figure S1c),"histone modifications; ubp8Δubp10Δ, 4% glucose, relative to WT 0.05% = 1, replicate 3",2.75
same,relative histone modification level (Figure S1c),"histone modifications; ubp8Δubp10Δ, 4% glucose, relative to WT 0.05% = 1, replicate 4",2.722
same,H3K4me3 level in chd1Δ mutant,"H3K4me3; chd1Δ, different glucose concentrations, 0.5 hr, Western blot (rebuttal)",glucose-induced
same,"H3K4me3 level, WT versus tpk2Δ","H3K4me3; increasing glucose concentrations, Western blot",induced H3K4me3 in WT but not tpk2Δ mutant
same,H3K14ac level,"H3K14ac; WT cells, glucose 0.5 hr",induced H3K14ac
same,"H3K14ac level, WT versus Jhd2-S321A, S340A and tpk2Δ",H3K14ac; glucose,"increased in response to glucose in WT but not in Jhd2-S321A, S340A and tpk2Δ mutants"
same,Jhd2 phosphorylation in response to glucose,Jhd2 phosphorylation,"Jhd2 phosphorylation was elevated when the concentration of glucose was increased from 0.05 to 2% in WT but not in Jhd2-S321A, S340A and tpk2Δ mutants"
same,"H3K79me3 occupancy at PAU8, DRS2 and ATG5",H3K79me3,"glucose significantly increased H3K79me3 at H2Bub-dependent genes (PAU8, DRS2)"
same,phosphorylation level and demethylase activity of Jhd2 purified from cells in 2% glucose versus 0.05% glucose,Jhd2,higher phosphorylation level but lower demethylase activity
